Assay results published in US11261453B2, “Cells expressing apolipoprotein E and uses thereof” (Whitehead Institute for Biomedical Research, priority 2014, dated 2022).

How the values were obtained:
[1] = tested on: Ste3 endocytosis to the vacuole; experiment: Ste3-mKate2 endocytosis assay, fluorescence microscopy; format: cell-based, Saccharomyces cerevisiae; details: 6-8 hours of induction with galactose, FIG. 13
Text: The effect of ApoE on endocytosis in yeast was further analyzed using a Ste3-mKate2 assay. Ste3 is a yeast G-protein coupled receptor (GPCR) that natively undergoes endocytosis from the cell surface to the vacuole. When clathrin-mediated endocytosis is disrupted, Ste3 trafficking can be disrupted as well.
The trafficking of Ste3 was observed using fluorescence microscopy by overexpressing a fluorescently-tagged (mKate2) version of Ste3 from a pAG423 galactose-inducible plasmid. The ApoE4 hitox strain described above was transformed with the pAG423-Ste3-mKate2 plasmid. In addition, yeast strains as described in Example 4 harboring expression constructs encoding human neurodegenerative disease-associated proteins alpha-synuclein (α-syn intox) or Aβ (Kar2ss-Aβ strain described in Treusch, S., et al., Science. (2011), 334:1241-5) were also transformed with the pAG423-Ste3-mKate2 plasmid. A strain transformed with a Gal-GFP plasmid served as a negative control. […] (FIG. 13).

[2] = tested on: ApoE4-mediated toxicity; experiment: Compound test in ApoE4 hitox yeast strain (PDR1 and PDR3 deleted), optical density at A600 after 24 hours; format: cell-based, Saccharomyces cerevisiae; details: A600, FIG. 10
Description: An ApoE4 hitox strain harboring 3-4 copies of the ApoE4 construct and with the drug-pump transcription factors PDR1 and PDR 3 deleted was used in this experiment. Cells were grown in raffinose; cells were diluted into galactose medium (to initiate expression of the expression construct). Test compounds were added to the cultures at various concentrations ranging from 0.25 μM to 32.0 μM; cells were grown for 24 hours after addition of the compounds, and the optical densities were then read at A600.

[3] = tested on: ApoE4-mediated toxicity; details: known from other experiments; cited from earlier work

| Compound | effect on Ste3 endocytosis [1] | ability to reduce ApoE4-mediated toxicity ([2]; 0.25 μM to 32.0 μM) | concentrations at which ApoE4-mediated toxicity is reduced [2] | toxicity of the compound itself to yeast [3] |
| --- | --- | --- | --- | --- |
| Aβ: human amyloid beta expressed in yeast (Kar2ss-Aβ strain) | disruption of Ste3 endocytosis | – | – | – |
| Oc1c(I)cc(Cl)c2cccnc12 [clioquinol] | – | able to reduce ApoE4-mediated toxicity | below 1.5 μM | becomes toxic to yeast at high concentrations |
